From PubChem BioAssay (NCI)
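Assay format: 96-well plates, 48-hour exposure. TGI: concentration producing complete growth inhibition.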

Legend:
Assay in all cases: NCI-60 cell line screen, 48 h
EKVX NSCLC = tested on: EKVX NSCLC
NCI-H522 lung = tested on: NCI-H522 lung
M14 melanoma = tested on: M14 melanoma
SNB-19 CNS = tested on: SNB-19 CNS
NCI-H460 lung = tested on: NCI-H460 lung
HOP-62 NSCLC = tested on: HOP-62 NSCLC
CAKI-1 renal = tested on: CAKI-1 renal
K-562 leukemia = tested on: K-562 leukemia
SNB-78 CNS = tested on: SNB-78 CNS
RPMI-8226 leukemia = tested on: RPMI-8226 leukemia
SF-295 CNS = tested on: SF-295 CNS
786-0 renal = tested on: 786-0 renal
M19-MEL melanoma = tested on: M19-MEL melanoma
DMS 273 small cell lung = tested on: DMS 273 small cell lung
UO-31 renal = tested on: UO-31 renal
TK-10 renal = tested on: TK-10 renal
HL-60(TB) leukemia = tested on: HL-60(TB) leukemia
UACC-257 melanoma = tested on: UACC-257 melanoma
IGROV1 ovarian = tested on: IGROV1 ovarian
OVCAR-5 ovarian = tested on: OVCAR-5 ovarian
LOX IMVI melanoma = tested on: LOX IMVI melanoma
OVCAR-3 ovarian = tested on: OVCAR-3 ovarian
HOP-92 NSCLC = tested on: HOP-92 NSCLC
A549 NSCLC = tested on: A549 NSCLC
HCC-2998 colon = tested on: HCC-2998 colon
SK-MEL-2 melanoma = tested on: SK-MEL-2 melanoma
SK-OV-3 ovarian = tested on: SK-OV-3 ovarian
SW-620 colon = tested on: SW-620 colon
KM20L2 colon = tested on: KM20L2 colon
SF-539 CNS = tested on: SF-539 CNS
MOLT-4 leukemia = tested on: MOLT-4 leukemia
SK-MEL-28 melanoma = tested on: SK-MEL-28 melanoma
MALME-3M melanoma = tested on: MALME-3M melanoma
NCI-H226 lung = tested on: NCI-H226 lung
DLD-1 colon = tested on: DLD-1 colon
ACHN renal = tested on: ACHN renal
UACC-62 melanoma = tested on: UACC-62 melanoma
KM12 colon = tested on: KM12 colon
HCT-15 colon = tested on: HCT-15 colon
U251 CNS = tested on: U251 CNS
NCI-H23 lung = tested on: NCI-H23 lung
SK-MEL-5 melanoma = tested on: SK-MEL-5 melanoma
SF-268 CNS = tested on: SF-268 CNS
CCRF-CEM leukemia = tested on: CCRF-CEM leukemia
LXFL 529 NSCLC = tested on: LXFL 529 NSCLC
COLO 205 colon = tested on: COLO 205 colon
HOP-18 NSCLC = tested on: HOP-18 NSCLC
A498 renal = tested on: A498 renal
HT29 colon = tested on: HT29 colon
XF 498 CNS = tested on: XF 498 CNS
DMS 114 small cell lung = tested on: DMS 114 small cell lung
OVCAR-4 ovarian = tested on: OVCAR-4 ovarian
RXF 393 renal = tested on: RXF 393 renal
SNB-75 CNS = tested on: SNB-75 CNS
SN12C renal = tested on: SN12C renal
OVCAR-8 ovarian = tested on: OVCAR-8 ovarian

Measured: TGI

CC1=Nn2c(nnc2-c2ccc(Cl)cc2)NC(C)(C)C1
not listed: RXF 393 renal | SNB-75 CNS | SN12C renal | OVCAR-8 ovarian
> 100 µM: all other assays above

Cn1nc(N)nc1N=S(C)(C)=N
not listed: M19-MEL melanoma | LOX IMVI melanoma | DLD-1 colon
> 100 µM: all other assays above
